The values below come from the OligoGym collection.

Only the 19 paired bases of each siRNA are shown; overhangs and chemistry are not given here.
Note: test concentration or dose not given here.

The first data set deals with DBI. As to the kind of experiment: five studies, different assays. The note with it: siRNA.
As for “sense AAACGAUUACUGACUUUCC / antisense GGAAAGUCAGUAAUCGUUU”, the target inhibition was -18.6%.
For the substance “sense AAAGUAGAAGAGCUAAAGA / antisense UCUUUAGCUCUUCUACUUU”, the target inhibition turned out to be 71.8%.
For the substance “sense AAGAGCUAAAGAAAAAAUA / antisense UAUUUUUUCUUUAGCUCUU”, the target inhibition came to 68%.
“sense AAGAUGCCAUGAAAGCUUA / antisense UAAGCUUUCAUGGCAUCUU”: the target inhibition was found to be 50.7%.
Regarding “sense ACUGAGACAAUGCCUUGUU / antisense AACAAGGCAUUGUCUCAGU”, the target inhibition was 6.01%.
Same read-out and setting: then “sense AGAUGCCAUGAAAGCUUAC / antisense GUAAGCUUUCAUGGCAUCU”, with -9.13%.
As for “sense UGAAAGCUUACAUCAACAA / antisense UUGUUGAUGUAAGCUUUCA”, the target inhibition came to 33.7%.
As to “sense UGGGAUGCCUGGAAUGAGC / antisense GCUCAUUCCAGGCAUCCCA”, the target inhibition amounted to 4.9%.
On the same count and under the same terms, then “sense UUACUGACUUUCCUUGAGU / antisense ACUCAAGGAAAGUCAGUAA”, with -8.35%.

Another data set deals with GAPDH. As to the kind of experiment: five studies, different assays. The note with it: siRNA.
Take “sense AAGGACUCAUGACCACAGU / antisense ACUGUGGUCAUGAGUCCUU”: the target inhibition is -17.4%.
For the substance “sense AAGUAUGACAACAGCCUCA / antisense UGAGGCUGUUGUCAUACUU”, the target inhibition was 94.2%.
On the same count and under the same terms, then “sense ACCAUGAGAAGUAUGACAA / antisense UUGUCAUACUUCUCAUGGU”, with 92.5%.
Still for that read-out and setting: the same measure for “sense AUGACAACAGCCUCAAGAU / antisense AUCUUGAGGCUGUUGUCAU”: 58.3%.
On the same count and under the same terms, then “sense CAGGGGGGAGCCAAAAGGG / antisense CCCUUUUGGCUCCCCCCUG”, with -24.4%.
With “sense CAUGAGAAGUAUGACAACA / antisense UGUUGUCAUACUUCUCAUG”, the target inhibition amounted to 92.4%.
“sense CCAAAAGGGUCAUCAUCUC / antisense GAGAUGAUGACCCUUUUGG”: the target inhibition came out at 93.9%.
With “sense CCCCUGGCCAAGGUCAUCC / antisense GGAUGACCUUGGCCAGGGG”, the target inhibition is -2.51%.
With “sense GACAACAGCCUCAAGAUCA / antisense UGAUCUUGAGGCUGUUGUC”, the target inhibition stood at 94.2%.
On the same count and under the same terms, the same measure for “sense GAUCAUCAGCAAUGCCUCC / antisense GGAGGCAUUGCUGAUGAUC”: 70.8%; for “sense GCACCACCAACUGCUUAGC / antisense GCUAAGCAGUUGGUGGUGC”: 38.6%; for “sense GGAGCCAAAAGGGUCAUCA / antisense UGAUGACCCUUUUGGCUCC”: 88.7%.
Take “sense GUAUGACAACAGCCUCAAG / antisense CUUGAGGCUGUUGUCAUAC”: the target inhibition came out at 77.6%.
Take “sense GUCAUCAUCUCUGCCCCCU / antisense AGGGGGCAGAGAUGAUGAC”: the target inhibition was 69.8%.
Take “sense GUGUGAACCAUGAGAAGUA / antisense UACUUCUCAUGGUUCACAC”: the target inhibition is 92.7%.
Same read-out and setting: the same measure for “sense UCAUGGGUGUGAACCAUGA / antisense UCAUGGUUCACACCCAUGA”: 60.5%.
In the case of “sense UGACAACUUUGGUAUCGUG / antisense CACGAUACCAAAGUUGUCA”, the target inhibition stood at 43%.
For the substance “sense UGCUGAUGCCCCCAUGUUC / antisense GAACAUGGGGGCAUCAGCA”, the target inhibition stood at 12.7%.
Still for that read-out and setting: the same measure for “sense UGGCCAAGGUCAUCCAUGA / antisense UCAUGGAUGACCUUGGCCA”: 91.5%.
As to “sense UGUUCGUCAUGGGUGUGAA / antisense UUCACACCCAUGACGAACA”, the target inhibition worked out at 80.3%.

The target in a further data set is PLK1. In words: five studies, different assays. The note with it: siRNA.
Regarding “sense AGAAUGAAUACAGUAUUCC / antisense GGAAUACUGUAUUCAUUCU”, the target inhibition came out at 58%.
“sense AGAUCACCCUCCUUAAAUA / antisense UAUUUAAGGAGGGUGAUCU”: the target inhibition is 72.5%.
On the same count and under the same terms, then “sense AGAUUGUGCCUAAGUCUCU / antisense AGAGACUUAGGCACAAUCU”, with 68.5%.
On the same count and under the same terms, the same measure for “sense AUGAAGAUCUGGAGGUGAA / antisense UUCACCUCCAGAUCUUCAU”: 55%; for “sense AUGACUCAACACGCCUCAU / antisense AUGAGGCGUGUUGAGUCAU”: 58.4%.
Consider “sense CAGUUUCGAGGUGGAUGUG / antisense CACAUCCACCUCGAAACUG”, for which the target inhibition was determined as 52.6%.
For “sense GAUGUCCAUGGAAAUAUCC / antisense GGAUAUUUCCAUGGACAUC”, the target inhibition is 43.9%.
The same measure, in the same setting: the same measure for “sense GGGCGGCUUUGCCAAGUGC / antisense GCACUUGGCAAAGCCGCCC”: 30.6%.
Still for that read-out and setting: the same measure for “sense UAUUUCCGCAAUUACAUGA / antisense UCAUGUAAUUGCGGAAAUA”: 57.1%.
On the same count and under the same terms, then “sense UUUGAGACUUCUUGCCUAA / antisense UUAGGCAAGAAGUCUCAAA”, with 82.2%.

For another data set, the target named is Renilla luciferase. In words: five studies, different assays. The note with it: siRNA.
Take “sense AAGUGUAGUAGAUGUGAUU / antisense AAUCACAUCUACUACACUU”: the target inhibition worked out at 87.9%.
For the substance “sense AGAUGCACCUGAUGAAAUG / antisense CAUUUCAUCAGGUGCAUCU”, the target inhibition is 63.9%.
“sense AGUUCGUCGUCCAACAUUA / antisense UAAUGUUGGACGACGAACU”: the target inhibition stood at 66.5%.
Same read-out and setting: the same measure for “sense AUCAUGAGAAAGUUAGAAC / antisense GUUCUAACUUUCUCAUGAU”: 47.3%; for “sense CAGCAUAUCUUGAACCAUU / antisense AAUGGUUCAAGAUAUGCUG”: 83.7%; for “sense GAACAAAGGAAACGGAUGA / antisense UCAUCCGUUUCCUUUGUUC”: 84.4%.
The same measure, in the same setting: the same measure for “sense GAAUUUGCAGCAUAUCUUG / antisense CAAGAUAUGCUGCAAAUUC”: 84.8%.
In the case of “sense GAUCAAAUCUGAAGAAGGA / antisense UCCUUCUUCAGAUUUGAUC”, the target inhibition was 90.9%.
Turning to “sense GCCAAGAAGUUUCCUAAUA / antisense UAUUAGGAAACUUCUUGGC”, the target inhibition was found to be 72.2%.
Consider “sense UCUACGUGCAAGUGAUGAU / antisense AUCAUCACUUGCACGUAGA”, for which the target inhibition turned out to be 89.5%.
Take “sense UCUUACUGCAUGGUUUGAA / antisense UUCAAACCAUGCAGUAAGA”: the target inhibition was 52.3%.
The same measure, in the same setting: then “sense UUUAUGGCGACAUGUUGUG / antisense CACAACAUGUCGCCAUAAA”, with 29.4%.

For another data set, the target named is placental-type alkaline phosphatase. In words: five studies, different assays. The note with it: siRNA.
For “sense AGUACCCAGAUGACUACAG / antisense CUGUAGUCAUCUGGGUACU”, the target inhibition came to 1.85%.
Same read-out and setting: then “sense CAAACAUGUGCCAGACAGU / antisense ACUGUCUGGCACAUGUUUG”, with 88%; and “sense CACUGCCGACCACUCCCAC / antisense GUGGGAGUGGUCGGCAGUG”, with -10%.
With “sense CCUACACGGUCCUCCUAUA / antisense UAUAGGAGGACCGUGUAGG”, the target inhibition was found to be 62.4%.
With “sense CGGAAACGGUCCAGGCUAU / antisense AUAGCCUGGACCGUUUCCG”, the target inhibition came out at 80.2%.
Take “sense CGGAUGUUACCGAGAGCGA / antisense UCGCUCUCGGUAACAUCCG”: the target inhibition is 32%.
On the same count and under the same terms, the same measure for “sense CGGCGCCCGGCCGGAUGUU / antisense AACAUCCGGCCGGGCGCCG”: 60%; for “sense CUACACGGUCCUCCUAUAC / antisense GUAUAGGAGGACCGUGUAG”: 21.2%.
On the same count and under the same terms, the same measure for “sense CUUCAUAGCGCACGUCAUG / antisense CAUGACGUGCGCUAUGAAG”: 16.5%; for “sense CUUUGAGCCUGGAGACAUG / antisense CAUGUCUCCAGGCUCAAAG”: 79%; for “sense GAAACGGUCCAGGCUAUGU / antisense ACAUAGCCUGGACCGUUUC”: 5.96%.
Consider “sense GAAUCUGGUGCAGGAAUGG / antisense CCAUUCCUGCACCAGAUUC”, for which the target inhibition is 56.5%.
Same read-out and setting: the same measure for “sense GACUGAGACGAUCAUGUUC / antisense GAACAUGAUCGUCUCAGUC”: 85%; for “sense GAGUGCAGCACGCCUCGCC / antisense GGCGAGGCGUGCUGCACUC”: -5%; for “sense GCCAAGAACCUCAUCAUCU / antisense AGAUGAUGAGGUUCUUGGC”: 90.8%.
Same read-out and setting: then “sense GGGCGGGCCAGCUCACCAG / antisense CUGGUGAGCUGGCCCGCCC”, with 20%; and “sense UCUGGUGCAGGAAUGGCUG / antisense CAGCCAUUCCUGCACCAGA”, with 30%.
On to “sense UGUUCGACGACGCCAUUGA / antisense UCAAUGGCGUCGUCGAACA”, for which the target inhibition was 74%.
